Legend:
Format in all cases: functional, organism-based
Plasmodium falciparum [1] = experiment: Antimalarial activity against multidrug-resistant Plasmodium falciparum TM91C235 assessed as inhibition of [3H]hypoxanthine incorporation after 96 hrs by microtiter plate scintillation counting
Plasmodium falciparum [2] = experiment: Antimalarial activity against chloroquine-sensitive Plasmodium falciparum D6 assessed as inhibition of [3H]hypoxanthine incorporation after 96 hrs by microtiter plate scintillation counting
Plasmodium falciparum [3] = experiment: Antimalarial activity against chloroquine-,pyrimethamine-resistant Plasmodium falciparum W2 assessed as inhibition of [3H]hypoxanthine incorporation after 96 hrs by microtiter plate scintillation counting

Compound	IC50 (Plasmodium falciparum [1]) [nM]	IC50 (Plasmodium falciparum [2]) [nM]	IC50 (Plasmodium falciparum [3]) [nM]
CC[C@H]1OC(=O)[C@H](C)[C@@H](O[C@H]2C[C@@](C)(OC)[C@@H](O)[C@H](C)O2)[C@H](C)[C@@H](O[C@@H]2O[C@H](C)C[C@H](N(C)C)[C@H]2O)[C@](C)(O)C[C@@H](C)CN(CCCNC(=O)Nc2ccc(Cl)cc2)[C@H](C)[C@@H](O)[C@]1(C)O	90.4	188	99.3
CC[C@H]1OC(=O)[C@H](C)[C@@H](O[C@H]2C[C@@](C)(OC)[C@@H](O)[C@H](C)O2)[C@H](C)[C@@H](O[C@@H]2O[C@H](C)C[C@H](N(C)C)[C@H]2O)[C@](C)(O)C[C@@H](C)CN(CCCNC(=O)Nc2ccc3c(c2)CCC3)[C@H](C)[C@@H](O)[C@]1(C)O	96.2	266	73.6
CC[C@H]1OC(=O)[C@H](C)[C@@H](O[C@H]2C[C@@](C)(OC)[C@@H](O)[C@H](C)O2)[C@H](C)[C@@H](O[C@@H]2O[C@H](C)C[C@H](N(C)C)[C@H]2O)[C@](C)(O)C[C@@H](C)CN(CCCNC(=S)Nc2ccc(/N=N/c3ccccc3)cc2)[C@H](C)[C@@H](O)[C@]1(C)O	96.3	107	47.9
CCc1ccc(NC(=O)NCCCN2C[C@H](C)C[C@@](C)(O)[C@H](O[C@@H]3O[C@H](C)C[C@H](N(C)C)[C@H]3O)[C@@H](C)[C@H](O[C@H]3C[C@@](C)(OC)[C@@H](O)[C@H](C)O3)[C@@H](C)C(=O)O[C@H](CC)[C@@](C)(O)[C@H](O)[C@H]2C)cc1	99.3	226	73.8
CC[C@H]1OC(=O)[C@H](C)[C@@H](O[C@H]2C[C@@](C)(OC)[C@@H](O)[C@H](C)O2)[C@H](C)[C@@H](O[C@@H]2O[C@H](C)C[C@H](N(C)C)[C@H]2O)[C@](C)(O)C[C@@H](C)CN(CCCNC(=S)Nc2ccc(-n3cccn3)cc2)[C@H](C)[C@@H](O)[C@]1(C)O	101	160	109
CC[C@H]1OC(=O)[C@H](C)[C@@H](O[C@H]2C[C@@](C)(OC)[C@@H](O)[C@H](C)O2)[C@H](C)[C@@H](O[C@@H]2O[C@H](C)C[C@H](N(C)C)[C@H]2O)[C@](C)(O)C[C@@H](C)CN(CCCNC(=S)Nc2cccc3nsnc23)[C@H](C)[C@@H](O)[C@]1(C)O	101	176	88.2
CC[C@H]1OC(=O)[C@H](C)[C@@H](O[C@H]2C[C@@](C)(OC)[C@@H](O)[C@H](C)O2)[C@H](C)[C@@H](O[C@@H]2O[C@H](C)C[C@H](N(C)C)[C@H]2O)[C@](C)(O)C[C@@H](C)CN(CCCNC(=S)NCC2CC3CCC2C3)[C@H](C)[C@@H](O)[C@]1(C)O (some centres undefined)	102	249	46.5
CCOC(=O)c1ccc(NC(=S)NCCCN2C[C@H](C)C[C@@](C)(O)[C@H](O[C@@H]3O[C@H](C)C[C@H](N(C)C)[C@H]3O)[C@@H](C)[C@H](O[C@H]3C[C@@](C)(OC)[C@@H](O)[C@H](C)O3)[C@@H](C)C(=O)O[C@H](CC)[C@@](C)(O)[C@H](O)[C@H]2C)cc1	107	121	70.9
CC[C@H]1OC(=O)[C@H](C)[C@@H](O[C@H]2C[C@@](C)(OC)[C@@H](O)[C@H](C)O2)[C@H](C)[C@@H](O[C@@H]2O[C@H](C)C[C@H](N(C)C)[C@H]2O)[C@](C)(O)C[C@@H](C)CN(CCCNC(=S)Nc2ccc(Cl)cc2)[C@H](C)[C@@H](O)[C@]1(C)O	108	188	53.4
CC[C@H]1OC(=O)[C@H](C)[C@@H](O[C@H]2C[C@@](C)(OC)[C@@H](O)[C@H](C)O2)[C@H](C)[C@@H](O[C@@H]2O[C@H](C)C[C@H](N(C)C)[C@H]2O)[C@](C)(O)C[C@@H](C)CN(CCCNC(=S)Nc2cccc(F)c2)[C@H](C)[C@@H](O)[C@]1(C)O	116	511	200
CC[C@H]1OC(=O)[C@H](C)[C@@H](O[C@H]2C[C@@](C)(OC)[C@@H](O)[C@H](C)O2)[C@H](C)[C@@H](O[C@@H]2O[C@H](C)C[C@H](N(C)C)[C@H]2O)[C@](C)(O)C[C@@H](C)CN(CCCNC(=O)Nc2cc(F)ccc2C)[C@H](C)[C@@H](O)[C@]1(C)O	117	396	53.2
CC[C@H]1OC(=O)[C@H](C)[C@@H](O[C@H]2C[C@@](C)(OC)[C@@H](O)[C@H](C)O2)[C@H](C)[C@@H](O[C@@H]2O[C@H](C)C[C@H](N(C)C)[C@H]2O)[C@](C)(O)C[C@@H](C)CN(CCCNC(=O)Nc2cccc(Cl)c2)[C@H](C)[C@@H](O)[C@]1(C)O	118	455	187
CC[C@H]1OC(=O)[C@H](C)[C@@H](O[C@H]2C[C@@](C)(OC)[C@@H](O)[C@H](C)O2)[C@H](C)[C@@H](O[C@@H]2O[C@H](C)C[C@H](N(C)C)[C@H]2O)[C@](C)(O)C[C@@H](C)CN(CCCNC(=S)Nc2ccc(OC(F)F)cc2)[C@H](C)[C@@H](O)[C@]1(C)O	121	216	63

From ChEMBL document CHEMBL1681728, “An automated, polymer-assisted strategy for the preparation of urea and thiourea derivatives of 15-membered azalides as potential antimalarial chemotherapeutics” (Bioorg Med Chem, 2011)
